Test results reported in a compilation of properties of binary mixtures (doi:10.1016/j.molliq.2022.121069).

Assay: xn = mol fraction of the nth substance listed
Details: 101.3 kPa

CCCC[N+](CCCC)(CCCC)CCCC.[Cl-] + CNCCO
Details | speed of sound, x1 = 0.091 [m/s] | speed of sound, x1 = 0.111 [m/s] | speed of sound, x1 = 0.1441 [m/s] | viscosity, x1 = 0.091 [mPa·s] | viscosity, x1 = 0.111 [mPa·s] | viscosity, x1 = 0.1441 [mPa·s]
293.15 K | – | 1516.6 | 1521.4 | – | 34.4 | 47.4
298.15 K | – | – | 1505.8 | – | – | 34.3
303.15 K | 1482 | 1485.3 | – | 18.5 | 20.8 | –
308.15 K | 1466.3 | 1469.8 | – | 15.1 | 16.8 | –
313.15 K | 1450.5 | 1454.2 | – | 12.7 | 14.1 | –
318.15 K | – | 1438.9 | 1443.8 | – | 11.6 | 14.1
323.15 K | 1419.5 | 1423.6 | 1428.6 | 8.93 | 9.5 | 11.8
328.15 K | 1404.1 | – | 1413.5 | 7.38 | – | 10.3
333.15 K | 1388.5 | 1393.1 | 1398.5 | 6.48 | 6.5 | 9.58

CC[N+](CC)(CC)CC.[Cl-] + CNCCO
Details | speed of sound, x1 = 0.0914 [m/s] | speed of sound, x1 = 0.1114 [m/s] | speed of sound, x1 = 0.1413 [m/s] | viscosity, x1 = 0.0914 [mPa·s] | viscosity, x1 = 0.1114 [mPa·s] | viscosity, x1 = 0.1413 [mPa·s]
293.15 K | 1553.4 | 1565.5 | – | 20.5 | 21.9 | –
298.15 K | 1538 | 1550.1 | 1565.6 | 16.7 | 17.4 | 18.8
303.15 K | 1522.5 | – | 1550.1 | 13.5 | – | 15.2
308.15 K | – | 1519.5 | 1534.7 | – | 11.5 | 12.4
313.15 K | 1491.9 | 1504.6 | – | 9.57 | 10 | –
318.15 K | 1476.9 | 1489.4 | – | 7.92 | 8.35 | –
323.15 K | 1461.5 | – | – | 6.5 | – | –
328.15 K | – | 1458.8 | 1473.8 | – | 5.78 | 6.23
333.15 K | 1431 | 1444.6 | 1458.7 | 4.57 | 4.95 | 5.41
